Values quoted from earlier work, collected in patent EP3357492B1, “MULTILAYER TABLET FOR ADMINISTRATION OF MAGNESIUM” (S.I.I.T. S.r.l.-Servizio Internazionale Imballaggi …, priority 2017, dated 2018).

How the values were obtained:
[1] = in water

| pH (1% in water solution) | Solubility (g/100 g water) [1] | Compound |
| --- | --- | --- |
| 7 | – | Lactate |
| 8 | – | O.O.O.O.O.O=P([O-])([O-])[O-].O=P([O-])([O-])[O-].[Mg+2].[Mg+2].[Mg+2] [Phosphate 5 hydrate] |
| 7 | – | N[C@@H](CC(=O)O)C(=O)[O-].N[C@@H](CC(=O)O)C(=O)[O-].O.O.O.O.[Mg+2] [Aspartate 4 hydrate] |
| 7 | – | Gluconate |
| 6 | 40-50 g/100 g water | Phosphate |
| 6 | – | O=C1CC[C@@H](C(=O)[O-])N1.O=C1CC[C@@H](C(=O)[O-])N1.[Mg+2] [Pidolate] |
| 7 | – | Fumarate |
| 7 | 4 g/100 g water | Glycerophosphate |
| 10 | – | O=C([O-])[O-].[Na+].[Na+] [Carbonate] |
| 10 | – | CCC(=O)O [Propionate] |
| 7 | – | O.O.O=C1O[C@H]([C@@H](O)CO)C([O-])=C1O.O=C1O[C@H]([C@@H](O)CO)C([O-])=C1O.[Mg+2] [Ascorbate 2 hydrate] |

| Compound | pH (1% in water solution) | Solubility (g/100 g water) [1] |
| --- | --- | --- |
| O=C([O-])CC(O)(CC(=O)[O-])C(=O)[O-].O=C([O-])CC(O)(CC(=O)[O-])C(=O)[O-].[Mg+2].[Mg+2].[Mg+2] [Dicitrate] | 9 | – |
| O=C([O-])CC(O)(CC(=O)[O-])C(=O)[O-].[K+].[K+].[K+] [Potassium citrate] | 7.5 | – |
| [O]=[Mg] [Oxide, Magnesium oxide] | 10.5 | <1 g/100 g water |
| [Mg+2].[OH-].[OH-] [Hydroxide, Magnesium hydroxide] | 10.5 | – |
| O.O.O.O.O.O.[Cl-].[Cl-].[Mg+2] [Chloride 6 hydrate] | 5 | – |
| O=C(O)CC(O)(CC(=O)O)C(=O)O [Citrate] | 4 | – |
